These results are taken from ChEMBL document CHEMBL3774320, “SAR exploration at the C-3 position of tetrahydro-β-carboline sstr3 antagonists” (Bioorg Med Chem Lett, 2016).

In series [1] the test system is Mus musculus. The series can be described thus: Dose normalized AUC in mouse at 2 mg/kg, po. Type of series: ADME, organism-based. The settings on record: in vivo.
A short description of series [2]: Volume of distribution at steady state in mouse at 1 mg/kg, iv and at 2 mg/kg, po. In kind it is ADME, organism-based. The settings on record: in vivo, read-out: Vdss.
A short description of series [3]: Clearance in mouse plasma at 1 mg/kg, iv. In kind it is ADME, organism-based.
Series [4] in a line: Oral bioavailability in mouse at 2 mg/kg. In kind it is ADME, organism-based. The settings on record: in vivo.
Series [5] deals with T1, Somatostatin receptor type 3 (Homo sapiens, UniProt P32745).
Description: Antagonist activity at human somatostatin receptor type 3 assessed as inhibition of cAMP levels
Series [6] can be described thus: Half life in mouse at 1 mg/kg, iv. Type of series: ADME, organism-based. The following applies: in vivo.
In series [7] the test system is Mus musculus. The series can be described thus: Decrease in glucose excursion in mouse at 10 mg/kg, po by Glucose tolerance test. On the set-up: scale not given: the % may be the effect or the level left. In kind it is functional.
The target in series [8] is Somatostatin receptor type 5 (Homo sapiens, UniProt P35346). The series can be described thus: Binding affinity to somatostatin receptor type 5 (unknown origin).
The test system of series [9] is Mus musculus. In words: Decrease in glucose excursion in mouse at 0.03 mg/kg, po by Glucose tolerance test. In kind it is functional. More on the design: scale not given: the % may be the effect or the level left.
The target of series [10] is Somatostatin receptor type 1 (Homo sapiens, UniProt P30872). The series can be described thus: Binding affinity to somatostatin receptor type 1 (unknown origin).
Series [11] relates to Mus musculus. In words: Decrease in glucose excursion in mouse at 3 mg/kg, po by Glucose tolerance test. Type of series: functional. More on the design: scale not given: the % may be the effect or the level left.
For series [12], the target named is Somatostatin receptor type 2 (Homo sapiens, UniProt P30874). The series can be described thus: Binding affinity to somatostatin receptor type 2 (unknown origin).
In series [13] the target is Somatostatin receptor type 4 (Homo sapiens, UniProt P31391). In words: Binding affinity to somatostatin receptor type 4 (unknown origin).
The subject of series [14] is Mus musculus. The series can be described thus: Decrease in glucose excursion in mouse at 0.3 mg/kg, po by Glucose tolerance test. In kind it is functional. On the set-up: scale not given: the % may be the effect or the level left.
For series [15], the system named is Mus musculus. The series can be described thus: Decrease in glucose excursion in mouse at 1 mg/kg, po by Glucose tolerance test. In kind it is functional. More on the design: scale not given: the % may be the effect or the level left.
In series [16] the test system is Mus musculus. In words: Decrease in glucose excursion in mouse at 0.1 mg/kg, po by Glucose tolerance test. In kind it is functional. On the set-up: scale not given: the % may be the effect or the level left.
Series [17] deals with Rattus norvegicus. The series can be described thus: Volume of distribution at steady state in rat at 1 mg/kg, iv and at 2 mg/kg, po. The following applies: in vivo.
Series [18] can be described thus: Volume of distribution at steady state in mouse at 4 mg/kg, iv and at 10 mg/kg, po. The following applies: in vivo.
Series [19] has as its target T1, Somatostatin receptor type 3. This is another data set of the same source.
Description: Binding affinity to human somatostatin receptor type 3
The species named for series [20] is Mus musculus. The following applies: in vivo, po, 10 mg/kg.
In series [21] the target is Voltage-gated inwardly rectifying potassium channel KCNH2 (Homo sapiens, UniProt Q12809). The series can be described thus: Binding affinity to human ERG.
Series [22] is filed under the species Rattus norvegicus. The settings on record: in vivo, po, 2 mg/kg.
Series [23] is described as follows: Half life in mouse at 4 mg/kg, iv. The settings on record: in vivo.
Series [24] relates to Rattus norvegicus. In words: Half life in rat at 1 mg/kg, iv. The settings on record: in vivo.
A short description of series [25]: in vivo. The settings on record: mouse, po, 10 mg/kg.
Series [26] is described as follows: Clearance in mouse plasma at 4 mg/kg, iv.
A short description of series [27]: in vivo. The following applies: rat, po, 2 mg/kg.

T1 sequence (P32745 whole entry): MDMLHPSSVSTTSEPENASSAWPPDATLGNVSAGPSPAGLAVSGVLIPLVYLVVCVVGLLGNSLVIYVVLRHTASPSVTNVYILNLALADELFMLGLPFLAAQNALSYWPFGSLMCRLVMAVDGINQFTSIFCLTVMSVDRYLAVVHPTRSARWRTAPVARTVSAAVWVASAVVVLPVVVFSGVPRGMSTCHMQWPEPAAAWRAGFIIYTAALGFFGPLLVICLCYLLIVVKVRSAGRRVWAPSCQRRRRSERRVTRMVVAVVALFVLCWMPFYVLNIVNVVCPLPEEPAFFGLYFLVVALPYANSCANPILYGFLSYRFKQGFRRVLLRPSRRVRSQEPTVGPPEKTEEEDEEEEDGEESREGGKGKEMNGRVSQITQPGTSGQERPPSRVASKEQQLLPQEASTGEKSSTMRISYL
Chain of Somatostatin receptor type 4 (P31391 whole entry): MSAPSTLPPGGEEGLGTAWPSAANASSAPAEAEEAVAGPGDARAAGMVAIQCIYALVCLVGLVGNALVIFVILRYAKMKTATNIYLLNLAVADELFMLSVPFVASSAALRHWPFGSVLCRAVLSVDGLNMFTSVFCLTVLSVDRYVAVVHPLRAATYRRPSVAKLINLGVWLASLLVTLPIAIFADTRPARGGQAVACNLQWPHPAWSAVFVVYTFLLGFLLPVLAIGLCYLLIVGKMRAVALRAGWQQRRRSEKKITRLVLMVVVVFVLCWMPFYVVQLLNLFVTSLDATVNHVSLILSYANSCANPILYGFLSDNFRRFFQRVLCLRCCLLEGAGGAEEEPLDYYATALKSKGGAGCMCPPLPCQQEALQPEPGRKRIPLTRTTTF
Chain of Somatostatin receptor type 1 (P30872 whole entry): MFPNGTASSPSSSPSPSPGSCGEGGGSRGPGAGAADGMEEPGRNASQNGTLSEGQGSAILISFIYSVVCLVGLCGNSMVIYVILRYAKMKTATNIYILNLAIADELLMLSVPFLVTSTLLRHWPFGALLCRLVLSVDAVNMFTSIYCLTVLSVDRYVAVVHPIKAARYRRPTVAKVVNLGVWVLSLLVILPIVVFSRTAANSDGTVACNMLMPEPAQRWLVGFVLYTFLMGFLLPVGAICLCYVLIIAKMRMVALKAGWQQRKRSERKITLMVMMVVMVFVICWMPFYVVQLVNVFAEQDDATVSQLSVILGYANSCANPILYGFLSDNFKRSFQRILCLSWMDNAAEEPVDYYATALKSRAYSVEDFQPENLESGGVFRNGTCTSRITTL
Chain of Voltage-gated inwardly rectifying potassium channel KCNH2 (Q12809 whole entry): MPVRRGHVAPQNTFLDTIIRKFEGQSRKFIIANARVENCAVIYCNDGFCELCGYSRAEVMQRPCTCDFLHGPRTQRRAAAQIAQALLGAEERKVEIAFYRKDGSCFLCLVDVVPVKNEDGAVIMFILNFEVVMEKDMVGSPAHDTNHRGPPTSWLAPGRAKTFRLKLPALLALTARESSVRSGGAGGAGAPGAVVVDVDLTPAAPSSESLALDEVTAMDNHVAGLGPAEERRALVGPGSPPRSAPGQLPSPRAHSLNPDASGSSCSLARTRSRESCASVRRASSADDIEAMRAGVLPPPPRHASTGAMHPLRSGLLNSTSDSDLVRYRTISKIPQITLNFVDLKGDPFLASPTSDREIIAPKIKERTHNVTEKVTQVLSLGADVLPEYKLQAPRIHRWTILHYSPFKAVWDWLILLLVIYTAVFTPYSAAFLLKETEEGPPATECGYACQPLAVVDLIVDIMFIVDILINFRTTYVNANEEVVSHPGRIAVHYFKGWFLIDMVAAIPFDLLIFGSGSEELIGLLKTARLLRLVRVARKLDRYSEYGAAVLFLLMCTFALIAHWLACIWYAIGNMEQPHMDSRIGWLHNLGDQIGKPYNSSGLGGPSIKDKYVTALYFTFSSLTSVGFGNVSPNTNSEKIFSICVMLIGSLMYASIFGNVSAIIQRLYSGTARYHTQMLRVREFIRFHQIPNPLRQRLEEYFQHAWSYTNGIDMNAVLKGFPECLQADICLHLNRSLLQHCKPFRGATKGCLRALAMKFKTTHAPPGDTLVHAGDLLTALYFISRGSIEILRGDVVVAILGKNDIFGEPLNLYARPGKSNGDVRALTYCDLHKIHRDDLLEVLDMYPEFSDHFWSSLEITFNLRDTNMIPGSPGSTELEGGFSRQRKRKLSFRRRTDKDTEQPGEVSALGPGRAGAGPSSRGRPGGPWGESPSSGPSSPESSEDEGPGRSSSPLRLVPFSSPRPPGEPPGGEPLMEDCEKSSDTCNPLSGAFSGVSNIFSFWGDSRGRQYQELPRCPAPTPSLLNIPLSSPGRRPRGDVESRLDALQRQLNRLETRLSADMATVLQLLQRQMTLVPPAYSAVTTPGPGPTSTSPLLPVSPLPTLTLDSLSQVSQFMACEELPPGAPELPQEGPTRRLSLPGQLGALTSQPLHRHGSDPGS
Chain of Somatostatin receptor type 5 (P35346 whole entry): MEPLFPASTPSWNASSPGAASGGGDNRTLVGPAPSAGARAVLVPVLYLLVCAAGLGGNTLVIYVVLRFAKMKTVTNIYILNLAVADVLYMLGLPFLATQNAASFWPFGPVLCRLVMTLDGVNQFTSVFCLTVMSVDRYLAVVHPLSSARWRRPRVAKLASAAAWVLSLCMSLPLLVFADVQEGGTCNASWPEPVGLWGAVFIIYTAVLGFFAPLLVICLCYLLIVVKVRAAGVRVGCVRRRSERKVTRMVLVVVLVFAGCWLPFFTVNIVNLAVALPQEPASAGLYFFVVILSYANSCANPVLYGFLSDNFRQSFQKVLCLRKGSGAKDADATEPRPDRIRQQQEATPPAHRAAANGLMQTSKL
Chain of Somatostatin receptor type 2 (P30874 whole entry): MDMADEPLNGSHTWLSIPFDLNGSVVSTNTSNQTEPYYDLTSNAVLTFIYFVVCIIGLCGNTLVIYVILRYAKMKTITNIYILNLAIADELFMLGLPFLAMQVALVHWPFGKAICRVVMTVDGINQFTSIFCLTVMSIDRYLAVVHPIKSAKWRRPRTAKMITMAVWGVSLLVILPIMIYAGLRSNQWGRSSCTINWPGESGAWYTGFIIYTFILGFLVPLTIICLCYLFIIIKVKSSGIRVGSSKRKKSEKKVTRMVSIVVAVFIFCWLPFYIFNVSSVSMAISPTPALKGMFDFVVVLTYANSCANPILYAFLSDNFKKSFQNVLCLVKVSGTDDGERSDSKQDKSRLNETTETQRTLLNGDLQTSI

A word on the clearance: it is the volume of plasma or blood freed of the substance per unit of time. In general, bioavailability refers to the share of a dose that reaches the circulation, judged against a reference dose that is usually intravenous. One may read the EC50 as the concentration that produces a half-maximal response. In general, half-life refers to the time needed for the level to fall by half in the phase considered. In the series with Mus musculus [1], `Fc1ccc(-c2c[nH]c([C@H]3Cc4c([nH]c5ccccc45)[C@@H](C4CCOCC4)N3)n2)cc1` yielded an AUC/dose of 5.58 µM·h/mg/kg. In addition, the Vd in series [2] was 1.8 L/kg. Moreover, the clearance in series [3] came to 5.9 mL/min/kg. Further, the bioavailability in series [4] is 82%. The concentration giving a half-maximal response (EC50) in series [5] turned out to be 5.7 nM. For the same compound, the half-life in series [6] is 3.6 h. The compound further registered an Activity with Mus musculus [7] of 79%.
For orientation: IC50 means the midpoint of a concentration-inhibition curve. Take `Cc1nc([C@]2(c3cnn(C)c3)N[C@@H](c3nc(-c4ccc(F)cn4)c[nH]3)Cc3c2[nH]c2ccccc32)no1`: the IC50 in [8] was 10000 nM; in [10], 2300 nM; in series [12] it was above 10000 nM; in series [13] it was 3200 nM. Besides, the Activity in the series on Mus musculus [9] amounted to 40%; in the series with Mus musculus [11], 93%; with Mus musculus [14], 57%; in the series with Mus musculus [15] it was 87%; in the series with Mus musculus [16] it was 46%.
For the compound `CC1(c2nc(-c3ccccc3)c[nH]2)Cc2c([nH]c3ccccc23)C(C2CCOCC2)N1` (stereo in doubt; 6a), the Vdss in the series on Rattus norvegicus [17] was 13.2 L/kg. The same compound displayed a Vd in series [18] of 4.6 L/kg. In addition, the IC50 in series [19] turned out to be 23 nM; in series [21] it was 2180 nM. Also, the AUC/dose in the series listed under Mus musculus [20] was 0.31 µM·h/mg/kg; in the series listed under Rattus norvegicus [22], 0.28 µM·h/mg/kg. This compound had a half-life in series [23] of 1.3 h. In the series on Rattus norvegicus [24], the t1/2 is 0.96 h. In [5], this compound gave an EC50 of 17 nM. For the same compound, the bioavailability in “in vivo [25]” worked out at 58%; in “in vivo [27]” it was 49%. The compound further returned a clearance in [26] of 77 mL/min/kg.
